# Experiment: Solid stability test of the crystal forms (influence factors and acceleration tests; appearance, XRPD, HPLC content and impurities)
# Format: physicochemical
# Conditions: for photostability (stability under light radiation), conclusion in words / stability in dark, conclusion in words / stability under acceleration conditions, conclusion in words / thermal stability (high temperature), conclusion in words: conclusion of influence factors and acceleration tests
# Source text: A sample of the crystal form A was placed on the bottom of a glass sample bottle, and spread to a thin layer. The sample stored under high temperature, high humidity, and acceleration conditions was placed in a bottle of which the mouth was packed with a pierced aluminum foil to ensure the sample to be sufficiently exposed to ambient air; the sample stored under light radiation conditions was placed at room temperature in a standing bottle of which the mouth was open, the sample was exposed to a light resource, and sampled for detection after being radiated by sufficient energy. Samples were taken and analyzed at various time points, and the test results were compared with the initial test results of 0 day, the inspection items included appearance, content and impurities, and the test results are shown in Table 9.
# A sample of the crystal form B (10 mg) was placed on the bottom of a glass sample bottle, and spread to a thin layer. The sample stored under high temperature, high humidity, and acceleration conditions were placed in a bottle of which the mouth was packed with a pierced aluminum foil to ensure the sample to be sufficiently exposed to ambient air; the sample stored under light radiation conditions was placed at room temperature in a standing bottle of which the mouth was open, the sample was exposed to a light resource, and sampled for detection after being radiated by sufficient energy, the control sample stored in dark (open, the whole sample bottle was sealed with aluminum foil to keep the content in dark) and the sample stored under light radiation conditions were placed together to exclude environmental influence on the samples. Samples were taken and analyzed at various time points, and the test results were compared with the initial test results of 0 day, the inspection items included appearance, crystal form, content and impurities, the test results are shown in Table 10.
# (§1) A sample of the crystal form C was taken and placed on the bottom of a glass sample bottle, and spread to a thin layer. The sample stored under high temperature, high humidity, and acceleration conditions was placed in a bottle of which the mouth was packed with a pierced aluminum foil to ensure the sample to be sufficiently exposed to ambient air; the sample stored under light radiation conditions was placed at room temperature in a standing bottle of which the mouth was open, the sample was exposed to a light resource, and sampled for detection after being radiated by sufficient energy. Samples were taken and analyzed at various time points, and the test results were compared with the initial test results of 0 day.
# as §1, with “D” for “C”
# A sample of the crystal form E (10 mg) was taken and placed on the bottom of a glass sample bottle, and spread to a thin layer. […]
# [1] = Acceleration test (40° C./relative humidity of 75%, open), 1 month
# [2] = Acceleration test (40° C./relative humidity of 75%, open), 2 months
# [3] = Acceleration test (40° C./relative humidity of 75%, open), 3 months
# [4] = Acceleration test (40° C./relative humidity of 75%, open), 10 days
# [5] = Acceleration test (60° C./relative humidity of 75%, open), 1 month
# [6] = Acceleration test (60° C./relative humidity of 75%, open), 2 months
# [7] = Acceleration test (60° C./relative humidity of 75%, open), 3 months
# [8] = Acceleration test (60° C./relative humidity of 75%, open), 10 days
# [9] = High humidity (room temperature/relative humidity of 92.5%, open), 5 days
# [10] = High humidity (room temperature/relative humidity of 92.5%, open), 10 days
# [11] = High temperature (60° C., open), 5 days
# [12] = High temperature (60° C., open), 10 days
# [13] = Light radiation (total illumination: 1.2 × 10^6 Lux·hr/near ultraviolet: 200 w·hr/m^2, open), light radiation sample
# [14] = Light radiation test, control sample in dark
compound,measurement,setting,value
C=CC(=O)N[C@H]1COC[C@H]1Nc1ncc(/C=C(\F)c2c(Cl)c(OC)cc(OC)c2Cl)cn1 [Crystal Form B],Appearance,0 day (initial),Off-white
same,Content (%),0 day (initial),99.21%
same,Crystal Form (XRPD),0 day (initial),form B
same,Total Impurities (%),0 day (initial),0.41%
same,Appearance,[1],Off-white
same,Content (%),[1],99.49%
same,Crystal Form (XRPD),[1],form B
same,Total Impurities (%),[1],0.43%
same,Appearance,[2],Off-white
same,Crystal Form (XRPD),[2],form B
same,Appearance,[3],Off-white
same,Content (%),[3],96.23%
same,Crystal Form (XRPD),[3],form B
same,Total Impurities (%),[3],0.31%
same,Appearance,[4],Off-white
same,Content (%),[4],101.21%
same,Crystal Form (XRPD),[4],form B
same,Total Impurities (%),[4],0.43%
same,Appearance,[5],Off-white
same,Content (%),[5],98.68%
same,Crystal Form (XRPD),[5],form B
same,Total Impurities (%),[5],0.42%
same,Appearance,[6],Off-white
same,Crystal Form (XRPD),[6],form B
same,Appearance,[7],Off-white
same,Content (%),[7],96.71%
same,Crystal Form (XRPD),[7],form B
same,Total Impurities (%),[7],0.31%
same,Appearance,[8],Off-white
same,Content (%),[8],100.91%
same,Crystal Form (XRPD),[8],form B
same,Total Impurities (%),[8],0.42%
same,Appearance,[9],Off-white
same,Crystal Form (XRPD),[9],form B
same,Appearance,[10],Off-white
same,Content (%),[10],101.03%
same,Crystal Form (XRPD),[10],form B
same,Total Impurities (%),[10],0.42%
same,Appearance,[11],Off-white
same,Crystal Form (XRPD),[11],form B
same,Appearance,[12],Off-white
same,Content (%),[12],100.74%
same,Crystal Form (XRPD),[12],form B
same,Total Impurities (%),[12],0.42%
same,Appearance,[13],Off-white
same,Content (%),[13],92.90%
same,Crystal Form (XRPD),[13],form B
same,Total Impurities (%),[13],2.21%
same,Appearance,[14],Off-white
same,Content (%),[14],100.23%
same,Crystal Form (XRPD),[14],form B
same,Total Impurities (%),[14],0.42%
same,"photostability (stability under light radiation), conclusion in words",,slight impurity generation
same,"stability in dark, conclusion in words",,good stability
same,"stability under acceleration conditions, conclusion in words",,superior
same,"thermal stability (high temperature), conclusion in words",,superior
C=CC(=O)N[C@H]1COC[C@H]1Nc1ncc(/C=C(\F)c2c(Cl)c(OC)cc(OC)c2Cl)cn1.CS(=O)(=O)O [Crystal Form E],Appearance,0 day (initial),White
same,Content (%),0 day (initial),101.51%
same,Crystal Form (XRPD),0 day (initial),form E
same,Total Impurities (%),0 day (initial),0.44%
same,Appearance,[1],White
same,Content (%),[1],102.95%
same,Crystal Form (XRPD),[1],form E
same,Total Impurities (%),[1],0.33%
same,Appearance,[4],White
same,Content (%),[4],99.58%
same,Crystal Form (XRPD),[4],form E
same,Total Impurities (%),[4],0.35%
same,Appearance,[5],White
same,Content (%),[5],102.48%
same,Crystal Form (XRPD),[5],form E
same,Total Impurities (%),[5],0.40%
same,Appearance,[8],White
same,Content (%),[8],100.38%
same,Crystal Form (XRPD),[8],form E
same,Total Impurities (%),[8],0.37%
same,Appearance,[9],White
same,Crystal Form (XRPD),[9],form E
same,Appearance,[10],White
same,Content (%),[10],101.24%
same,Crystal Form (XRPD),[10],form E
same,Total Impurities (%),[10],0.34%
same,Appearance,[11],White
same,Crystal Form (XRPD),[11],form E
same,Appearance,[12],White
same,Content (%),[12],100.37%
same,Crystal Form (XRPD),[12],form E
same,Total Impurities (%),[12],0.50%
same,Appearance,[13],White
same,Content (%),[13],98.70%
same,Crystal Form (XRPD),[13],form E
same,Total Impurities (%),[13],0.49%
same,Appearance,[14],White
same,Content (%),[14],100.87%
same,Crystal Form (XRPD),[14],form E
same,Total Impurities (%),[14],0.37%
same,"photostability (stability under light radiation), conclusion in words",,slight impurity generation
same,"stability in dark, conclusion in words",,good stability
same,"stability under acceleration conditions, conclusion in words",,superior
same,"thermal stability (high temperature), conclusion in words",,superior

# Reference: patent publication US11440903B2, “Salt form and crystal form of compound as FGFR4 inhibitor and preparation method thereof” (GUANGDONG ZHONGSHENG PHARMACEUTICAL CO., LTD, priority 2017, dated 2022)
